Assay results: US10273233B2, “Inhibitors of influenza viruses replication” (Vertex Pharmaceuticals Incorporated, priority 2015, dated 2019)
pEC50: −log10 of the molar value.

Columns and labels:
[1] = test system: A/Aichi/2/68; assay: 3-day CP assay in MDCK cells; format: cell-based; conditions: Influenza A virus
[2] = test system: A/Equine/Miami/63; assay: microbe, parasite or virus in culture; format: cell-based; conditions: Influenza A virus, MDCK
[3] = test system: A/Hong Kong/8/68; assay: 3-day CP assay in MDCK cells; format: cell-based; conditions: Influenza A virus
[4] = test system: A/Texas/48/2009; assay: 3-day CP assay in MDCK cells; format: cell-based; conditions: Influenza A virus
[5] = test system: A/South Dakota/6/2007; assay: 3-day CP assay in MDCK cells; format: cell-based; conditions: Influenza A virus
[6] = test system: A/Virginia/ATCC3/2009; assay: 3-day CP assay in MDCK cells; format: cell-based; conditions: Influenza A virus
[7] = test system: A/Hawaii/2/2006; assay: 3-day CP assay in MDCK cells; format: cell-based; conditions: Influenza A virus
[8] = test system: A/Cambodia0371/2007; assay: 3-day CP assay in MDCK cells; format: cell-based; conditions: Influenza A virus
[9] = test system: A/Swine/Iowa/15/30; assay: microbe, parasite or virus in culture; format: cell-based, influenza A; conditions: Influenza A virus, MDCK, in Sus scrofa
[10] = test system: A/Port Chalmers/1/73; assay: 3-day CP assay in MDCK cells; format: cell-based; conditions: Influenza A virus
[11] = test system: A/Fukushima/141/2006; assay: 3-day CP assay in MDCK cells; format: cell-based; conditions: Influenza A virus
[12] = test system: A/Puerto Rico/8/34; assay: 3-day CP assay in MDCK cells; format: cell-based; conditions: Influenza A virus
[13] = test system: A/Mal/302/54; assay: 3-day CP assay in MDCK cells; format: cell-based; conditions: Influenza A virus
[14] = test system: A/Weiss/43; assay: 3-day CP assay in MDCK cells; format: cell-based; conditions: Influenza A virus
[15] = test system: A/Swine/1976/31; assay: microbe, parasite or virus in culture; format: cell-based; conditions: Influenza A virus, MDCK, in Sus scrofa
[16] = test system: A/Virginia/ATCC2/2009; assay: 3-day CP assay in MDCK cells; format: cell-based; conditions: Influenza A virus
[17] = test system: A/Texas/12/2007; assay: 3-day CP assay in MDCK cells; format: cell-based; conditions: Influenza A virus
[18] = test system: A/Chelyabinsk/1/200; assay: 3-day CP assay in MDCK cells; format: cell-based; conditions: Influenza A virus
[19] = test system: B/Memphis/20/1996--070; assay: 3-day CP assay in MDCK cells; format: cell-based; conditions: Influenza B virus
[20] = test system: A/Denver/1/57; assay: 3-day CP assay in MDCK cells; format: cell-based; conditions: Influenza A virus
[21] = test system: A/St. Petersburg8/2006; assay: 3-day CP assay in MDCK cells; format: cell-based; conditions: Influenza A virus
[22] = test system: A/Missouri/3/2006; assay: 3-day CP assay in MDCK cells; format: cell-based; conditions: Influenza A virus
[23] = test system: A/WS/33; assay: 3-day CP assay in MDCK cells; format: cell-based; conditions: Influenza A virus
[24] = test system: A/Santiago/7981/2006; assay: 3-day CP assay in MDCK cells; format: cell-based; conditions: Influenza A virus
[25] = test system: A/Victoria/3/75; assay: 3-day CP assay in MDCK cells; format: cell-based; conditions: Influenza A virus
[26] = test system: A/Georgia/20/2006; assay: 3-day CP assay in MDCK cells; format: cell-based, influenza A; conditions: Influenza A virus, MDCK
[27] = test system: B/Russia/69; assay: 3-day CP assay in MDCK cells; format: cell-based; conditions: Influenza B virus
[28] = test system: A/Henan/Jinshui/147/2007; assay: 3-day CP assay in MDCK cells; format: cell-based; conditions: Influenza A virus
[29] = test system: A/Uruguay/716/2007; assay: 3-day CP assay in MDCK cells; format: cell-based; conditions: Influenza A virus
[30] = test system: A/New Jersey/8/76; assay: microbe, parasite or virus in culture; format: cell-based; conditions: Influenza A virus, MDCK
[31] = test system: A/Georgia/17/2006; assay: 3-day CP assay in MDCK cells; format: cell-based; conditions: Influenza A virus
[32] = test system: A/FM/1/47; assay: 3-day CP assay in MDCK cells; format: cell-based; conditions: Influenza A virus
[33] = test system: B/Lee/40; assay: 3-day CP assay in MDCK cells; format: cell-based; conditions: Influenza B virus
[34] = test system: A/Nebraska/1/2006; assay: 3-day CP assay in MDCK cells; format: cell-based; conditions: Influenza A virus
[35] = test system: A/Mexico/4108/2009; assay: 3-day CP assay in MDCK cells; format: cell-based; conditions: Influenza A virus
[36] = test system: A/California/07/2009; assay: 3-day CP assay in MDCK cells; format: cell-based; conditions: Influenza A virus, MDCK; A/California/07/2009
[37] = test system: A/NWS/33; assay: 3-day CP assay in MDCK cells; format: cell-based, influenza A; conditions: Influenza A virus, MDCK
[38] = test system: A/California/07/2009 NYMC, X-179A; assay: 3-day CP assay in MDCK cells; format: cell-based; conditions: Influenza A virus
[39] = test system: A/Wisconsin/67/2005; assay: 3-day CP assay in MDCK cells; format: cell-based; conditions: Influenza A virus
[40] = test system: A/New York/18/2009; assay: 3-day CP assay in MDCK cells; format: cell-based; conditions: Influenza A virus
[41] = test system: A/Virginia/01/2006; assay: 3-day CP assay in MDCK cells; format: cell-based; conditions: Influenza A virus
[42] = test system: B/Mass/3/66; assay: 3-day CP assay in MDCK cells; format: cell-based; conditions: Influenza B virus
[43] = test system: B/Memphis/20/1996--071; assay: 3-day CP assay in MDCK cells; format: cell-based; conditions: Influenza B virus

SMILES: NC12CC3CC(CC(C3)C1)C2 [Amantadine, amantadine]
- pEC50 [1]: 5.18
- pEC50 [2]: 5.76
- pEC50 [3]: 5.43
- pEC50 [4]: < 5.00
- pEC50 [5]: 6.85
- pEC50 [6]: < 5.00
- pEC50 [7]: 5.04
- pEC50 [8]: < 5.00
- pEC50 [9]: 6.66
- pEC50 [10]: < 5.00
- pEC50 [11]: 6.34
- pEC50 [12]: < 5.00
- pEC50 [13]: 5.68
- pEC50 [14]: < 5.00
- pEC50 [15]: 7.11
- pEC50 [16]: < 5.00
- pEC50 [17]: < 5.00
- pEC50 [18]: < 5.00
- pEC50 [19]: < 5.00
- pEC50 [20]: 6.51
- pEC50 [21]: < 5.00
- pEC50 [22]: 5.22
- pEC50 [23]: < 5.00
- pEC50 [24]: < 5.00
- pEC50 [25]: 5.07
- pEC50 [26]: < 5.00
- pEC50 [27]: < 5.00
- pEC50 [28]: < 5.00
- pEC50 [29]: < 5.00
- pEC50 [30]: 6.09
- pEC50 [31]: 6.60
- pEC50 [32]: 6.18
- pEC50 [33]: < 5.00
- pEC50 [34]: < 5.00
- pEC50 [35]: < 5.00
- pEC50 [36]: < 5.00
- pEC50 [37]: < 5.00
- pEC50 [38]: < 5.00
- pEC50 [39]: < 5.00
- pEC50 [40]: < 5.00
- pEC50 [41]: < 5.00

SMILES: NC(=O)c1nc(F)c[nH]c1=O [Compound T-705, favipiravir]
- pEC50 [1]: < 5.00
- pEC50 [2]: < 5.00
- pEC50 [3]: 5.35
- pEC50 [4]: 5.03
- pEC50 [5]: 5.15
- pEC50 [6]: 5.11
- pEC50 [7]: 5.26
- pEC50 [8]: 5.19
- pEC50 [9]: < 5.00
- pEC50 [10]: 5.72
- pEC50 [11]: 5.72
- pEC50 [12]: < 5.00
- pEC50 [13]: 5.47
- pEC50 [14]: 5.82
- pEC50 [15]: < 5.00
- pEC50 [16]: 5.28
- pEC50 [17]: 5.15
- pEC50 [18]: 5.19
- pEC50 [19]: 5.62
- pEC50 [20]: 5.96
- pEC50 [21]: < 5.00
- pEC50 [42]: 5.47
- pEC50 [22]: 5.28
- pEC50 [23]: < 5.00
- pEC50 [43]: < 5.00
- pEC50 [24]: 6.07
- pEC50 [25]: < 5.00
- pEC50 [26]: 5.20
- pEC50 [27]: 6.54
- pEC50 [28]: 5.21
- pEC50 [29]: 5.35
- pEC50 [30]: 5.68
- pEC50 [31]: 5.02
- pEC50 [32]: 5.35
- pEC50 [33]: 5.19
- pEC50 [34]: 5.19
- pEC50 [35]: < 5.00
- pEC50 [36]: 5.70
- pEC50 [37]: 5.12
- pEC50 [38]: < 5.00
- pEC50 [39]: < 5.00
- pEC50 [40]: 5.89
- pEC50 [41]: 5.51
